Laboratory results reported in patent publication US10358458B2, “4′-vinyl substituted nucleoside derivatives as inhibitors of respiratory syncytial virus RNA replication” (Riboscience LLC, priority 2014, dated 2019).

target: T1, RSV polymerase (Human respiratory syncytial virus A, UniProt P28887); assay: RSV polymerase assay (inhibition of RNA synthesis by RSV polymerase); format: biochemical; details: nucleoside triphosphate analogs; RSV polymerase from RSV infected A549 cells; 33P-CTP incorporation into nascent RSV RNA
T1 construct: RSV polymerase was obtained from RSV infected A549 cells; endogenous in cells; host or cells: RSV infected A549 cells (virus-encoded polymerase, detergent preparation)
Protocol: The RSV polymerase assay measures the ability of the nucleoside triphosphates derived from compounds of formula I to inhibit the RSV polymerase. RSV polymerase was obtained from RSV infected A549 cells. RSV polymerase activity was measured using RSV polymerase preparation (stored in 10 mM Tris-acetate (pH 8), 10 mM K-acetate, 1.5 mM MgCl2, 0.5% deoxycholate and 1% Tween-40) in the a buffer containing 50 mM Tris-HCL, pH8, 100 mM KCl, 5 mM MgCl2, 1 mM DTT and 0.2 mg/ml BSA in the presence of 50 μM ATP, GTP and UTP, 1 μM CTP and 3.5 μCi ^33P-labeled CTP (10 mCi/mL). The amount of nucleotides incorporated into nascent RSV RNA was determined TCA precipitation and scintillation counting.
The polymerase and replication activities of RSV were measured in the presence and absence of different concentrations of compounds to determine the degree of inhibition by the compounds.
The compound concentration at which the enzyme-catalyzed rate is reduced by 50% (IC50) was calculated by fitting the data to equation (1),
[formula] where “Y” corresponds to the relative enzyme activity (in %), “% Min” is the residual relative activity at saturating compound concentration, “% Max” is the relative maximum enzymatic activity, X corresponds to the compound concentration, and “S” is the Hill coefficient (or slope).

T1 sequence (P28887 whole entry): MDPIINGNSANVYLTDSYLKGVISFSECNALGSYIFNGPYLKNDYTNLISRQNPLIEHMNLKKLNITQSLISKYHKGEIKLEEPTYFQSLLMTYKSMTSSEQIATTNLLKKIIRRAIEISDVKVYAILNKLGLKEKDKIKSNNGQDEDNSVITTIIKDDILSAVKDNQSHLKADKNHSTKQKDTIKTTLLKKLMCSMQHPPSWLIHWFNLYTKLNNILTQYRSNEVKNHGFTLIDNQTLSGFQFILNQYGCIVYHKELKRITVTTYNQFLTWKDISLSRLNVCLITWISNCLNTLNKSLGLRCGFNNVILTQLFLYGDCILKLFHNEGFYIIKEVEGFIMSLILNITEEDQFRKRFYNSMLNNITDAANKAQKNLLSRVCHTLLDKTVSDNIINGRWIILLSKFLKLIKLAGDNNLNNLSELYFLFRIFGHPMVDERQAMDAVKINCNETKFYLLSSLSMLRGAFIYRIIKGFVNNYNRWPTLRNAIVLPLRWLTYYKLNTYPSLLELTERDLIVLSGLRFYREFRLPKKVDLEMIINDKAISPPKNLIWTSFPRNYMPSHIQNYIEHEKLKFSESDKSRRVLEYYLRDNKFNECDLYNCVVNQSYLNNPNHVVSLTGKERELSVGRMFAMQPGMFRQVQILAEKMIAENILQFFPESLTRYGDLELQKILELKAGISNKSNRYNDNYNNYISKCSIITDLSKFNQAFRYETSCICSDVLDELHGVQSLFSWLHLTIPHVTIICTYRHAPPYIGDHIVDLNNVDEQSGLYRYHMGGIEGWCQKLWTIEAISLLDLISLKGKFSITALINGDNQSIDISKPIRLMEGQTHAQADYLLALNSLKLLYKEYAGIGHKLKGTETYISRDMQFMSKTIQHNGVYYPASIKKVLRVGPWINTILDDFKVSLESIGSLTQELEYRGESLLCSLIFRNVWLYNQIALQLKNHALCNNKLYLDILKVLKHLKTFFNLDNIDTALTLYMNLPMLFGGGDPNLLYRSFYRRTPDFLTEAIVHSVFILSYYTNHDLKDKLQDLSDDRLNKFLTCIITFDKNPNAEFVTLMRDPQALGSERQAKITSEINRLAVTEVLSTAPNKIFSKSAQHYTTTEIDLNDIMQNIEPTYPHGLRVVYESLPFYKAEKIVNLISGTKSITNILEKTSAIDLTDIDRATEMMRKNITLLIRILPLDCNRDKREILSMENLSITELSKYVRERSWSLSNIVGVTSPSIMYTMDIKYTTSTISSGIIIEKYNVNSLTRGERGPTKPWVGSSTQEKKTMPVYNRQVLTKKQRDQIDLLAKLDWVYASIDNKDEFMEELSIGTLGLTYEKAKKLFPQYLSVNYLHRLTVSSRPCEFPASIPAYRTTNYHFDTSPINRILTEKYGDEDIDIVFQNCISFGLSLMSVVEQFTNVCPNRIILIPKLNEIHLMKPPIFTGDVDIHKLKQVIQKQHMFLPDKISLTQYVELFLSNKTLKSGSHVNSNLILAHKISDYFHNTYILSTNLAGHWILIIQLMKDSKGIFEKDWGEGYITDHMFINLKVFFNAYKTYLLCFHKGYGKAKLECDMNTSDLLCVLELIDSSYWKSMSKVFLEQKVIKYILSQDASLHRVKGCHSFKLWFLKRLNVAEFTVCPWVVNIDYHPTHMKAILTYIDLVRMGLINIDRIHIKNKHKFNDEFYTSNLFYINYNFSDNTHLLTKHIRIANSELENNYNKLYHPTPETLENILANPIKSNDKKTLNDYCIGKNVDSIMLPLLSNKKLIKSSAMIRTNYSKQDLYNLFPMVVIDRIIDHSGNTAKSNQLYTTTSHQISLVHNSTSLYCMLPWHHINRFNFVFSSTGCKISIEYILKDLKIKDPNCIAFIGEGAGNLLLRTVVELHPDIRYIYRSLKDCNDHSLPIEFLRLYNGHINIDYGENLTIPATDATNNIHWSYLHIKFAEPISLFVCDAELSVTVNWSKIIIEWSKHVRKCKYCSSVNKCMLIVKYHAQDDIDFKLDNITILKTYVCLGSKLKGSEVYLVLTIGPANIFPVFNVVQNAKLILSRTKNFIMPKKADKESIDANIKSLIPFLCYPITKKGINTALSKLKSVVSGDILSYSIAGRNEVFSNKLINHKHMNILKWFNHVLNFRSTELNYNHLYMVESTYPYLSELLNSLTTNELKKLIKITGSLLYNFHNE
T1 sequence (P03421 whole entry, further chain): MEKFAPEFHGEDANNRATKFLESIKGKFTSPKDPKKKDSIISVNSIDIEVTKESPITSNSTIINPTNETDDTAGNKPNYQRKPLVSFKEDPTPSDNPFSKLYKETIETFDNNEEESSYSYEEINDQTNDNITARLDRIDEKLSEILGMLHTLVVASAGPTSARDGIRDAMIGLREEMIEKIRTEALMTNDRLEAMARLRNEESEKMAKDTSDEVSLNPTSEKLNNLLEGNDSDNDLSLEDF

| Structure (SMILES) | IC50 [µM] |
| --- | --- |
| C=C[C@]1(COP(=O)(O)OP(=O)(O)OP(=O)(O)O)O[C@@H](n2cnc3c(N)ncnc32)[C@H](O)[C@@H]1O [II-3] | < 1 |
| C=C[C@]1(COP(=O)(O)OP(=O)(O)OP(=O)(O)O)O[C@@H](n2ccc(N)nc2=O)[C@H](O)[C@@H]1O [II-2] | < 1 |
| C=C[C@]1(COP(=O)(O)OP(=O)(O)OP(=O)(O)O)O[C@@H](n2ccc(=O)[nH]c2=O)[C@H](O)[C@@H]1O [II-1] | < 1 |
